Species on record: Rattus norvegicus
Test: Open TG-GATES - Regimen: Daily Repeat
Type: toxicity, organism-based, Sprague-Dawley
Set-up: regimen Daily Repeat, gender Male, age 6 weeks
Settings: in vivo, po, 300 mg/kg, route gavage, dose level Middle; for APTT / Bas / Eos / Fbg / Hb / Ht / Lym / MCH / MCHC / MCV / Mono / Neu / PT / Plat / RBC / Ret / WBC: tissue Blood; for KIDNEY_L / KIDNEY_R / KIDNEY_TOTAL: tissue Kidney; for LIVER: tissue Liver; for A/G / ALP / ALT / AST / BUN / CRE / Ca / Cl / DBIL / GLC / IP / K / LDH / Na / PL / RALB / TBIL / TC / TG / TP / gamma-GTP: tissue Plasma

SMILES: O=C(OC[C@H]1O[C@@H](OC(=O)c2cc(O)c(O)c(OC(=O)c3cc(O)c(O)c(O)c3)c2)[C@H](OC(=O)c2cc(O)c(O)c(OC(=O)c3cc(O)c(O)c(O)c3)c2)[C@@H](OC(=O)c2cc(O)c(O)c(OC(=O)c3cc(O)c(O)c(O)c3)c2)[C@@H]1OC(=O)c1cc(O)c(O)c(OC(=O)c2cc(O)c(O)c(O)c2)c1)c1cc(O)c(O)c(OC(=O)c2cc(O)c(O)c(O)c2)c1 [TANNIC ACID]
- TERMINAL_BW (72 h, time 3 day): 215.8 g
- APTT (72 h, time 3 day): 16.1 s
- Bas (72 h, time 3 day): 0%
- Eos (72 h, time 3 day): 1%
- Fbg (72 h, time 3 day): 240.8 mg/dL
- Hb (72 h, time 3 day): 13.1 g/dL
- Ht (72 h, time 3 day): 39.3%
- Lym (72 h, time 3 day): 76.8%
- MCH (72 h, time 3 day): 21.6 pg
- MCHC (72 h, time 3 day): 33.3%
- MCV (72 h, time 3 day): 64.9 fL
- Mono (72 h, time 3 day): 10%
- Neu (72 h, time 3 day): 12.4%
- PT (72 h, time 3 day): 11.5 s
- Plat (72 h, time 3 day): 118.8 x10_4/uL
- RBC (72 h, time 3 day): 606.2 x10_4/ul
- Ret (72 h, time 3 day): 7.7%
- WBC (72 h, time 3 day): 77.2 x10_2/uL
- KIDNEY_L (72 h, time 3 day): 1 g
- KIDNEY_R (72 h, time 3 day): 1 g
- KIDNEY_TOTAL (72 h, time 3 day): 1.9 g
- LIVER (72 h, time 3 day): 10.9 g
- A/G (72 h, time 3 day): 2.1
- ALP (72 h, time 3 day): 808.4 IU/L
- ALT (72 h, time 3 day): 35 IU/L
- AST (72 h, time 3 day): 62.8 IU/L
- BUN (72 h, time 3 day): 17.8 mg/dL
- CRE (72 h, time 3 day): 0.5 mg/dL
- Ca (72 h, time 3 day): 10.9 mg/dL
- Cl (72 h, time 3 day): 103.4 meq/L
- DBIL (72 h, time 3 day): 0.004 mg/dL
- GLC (72 h, time 3 day): 207.6 mg/dL
- IP (72 h, time 3 day): 8.7 mg/dL
- K (72 h, time 3 day): 4.6 meq/L
- LDH (72 h, time 3 day): 83 IU/L
- Na (72 h, time 3 day): 139 meq/L
- PL (72 h, time 3 day): 159.2 mg/dL
- RALB (72 h, time 3 day): 3.8 g/dL
- TBIL (72 h, time 3 day): 0.3 mg/dL
- TC (72 h, time 3 day): 84.6 mg/dL
- TG (72 h, time 3 day): 109.2 mg/dL
- TP (72 h, time 3 day): 5.6 g/dL
- gamma-GTP (72 h, time 3 day): 0.6 IU/L
- TERMINAL_BW ([…], time 7 day): 250.4 g
- TERMINAL_BW ([…], time 14 day): 315.8 g
- TERMINAL_BW ([…], time 28 day): 397.8 g
- APTT ([…], time 7 day): 17.1 s
- Bas ([…], time 7 day): 0%
- Eos ([…], time 7 day): 1.4%
- Fbg ([…], time 7 day): 226 mg/dL
- Hb ([…], time 7 day): 13.4 g/dL
- Ht ([…], time 7 day): 40.6%
- Lym ([…], time 7 day): 81.2%
- MCH ([…], time 7 day): 21.3 pg
- MCHC ([…], time 7 day): 33.1%
- MCV ([…], time 7 day): 64.2 fL
- Mono ([…], time 7 day): 4.8%
- Neu ([…], time 7 day): 12.8%
- PT ([…], time 7 day): 10.9 s
- Plat ([…], time 7 day): 123.2 x10_4/uL
- RBC ([…], time 7 day): 631.8 x10_4/ul
- Ret ([…], time 7 day): 6.5%
- WBC ([…], time 7 day): 103.7 x10_2/uL
- APTT ([…], time 14 day): 16.7 s
- Bas ([…], time 14 day): 0%
- Eos ([…], time 14 day): 1.2%
- Fbg ([…], time 14 day): 261.2 mg/dL
- Hb ([…], time 14 day): 13.7 g/dL
- Ht ([…], time 14 day): 41.1%
- Lym ([…], time 14 day): 75.4%
- MCH ([…], time 14 day): 20.7 pg
- MCHC ([…], time 14 day): 33.4%
- MCV ([…], time 14 day): 62.1 fL
- Mono ([…], time 14 day): 8%
- Neu ([…], time 14 day): 15.4%
- PT ([…], time 14 day): 11.5 s
- Plat ([…], time 14 day): 123.3 x10_4/uL
- RBC ([…], time 14 day): 662.6 x10_4/ul
- Ret ([…], time 14 day): 5.5%
- WBC ([…], time 14 day): 101.9 x10_2/uL
- APTT ([…], time 28 day): 16.6 s
- Bas ([…], time 28 day): 0%
- Eos ([…], time 28 day): 1.8%
- Fbg ([…], time 28 day): 232.8 mg/dL
- Hb ([…], time 28 day): 15 g/dL
- Ht ([…], time 28 day): 45.2%
- Lym ([…], time 28 day): 77.8%
- MCH ([…], time 28 day): 19.6 pg
- MCHC ([…], time 28 day): 33.2%
- MCV ([…], time 28 day): 59.1 fL
- Mono ([…], time 28 day): 6.2%
- Neu ([…], time 28 day): 14.5%
- PT ([…], time 28 day): 11.9 s
- Plat ([…], time 28 day): 113.3 x10_4/uL
- RBC ([…], time 28 day): 765.2 x10_4/ul
- Ret ([…], time 28 day): 3%
- WBC ([…], time 28 day): 112.2 x10_2/uL
- KIDNEY_L ([…], time 7 day): 1 g
- KIDNEY_R ([…], time 7 day): 1 g
- KIDNEY_TOTAL ([…], time 7 day): 2.1 g
- KIDNEY_L ([…], time 14 day): 1.4 g
- KIDNEY_R ([…], time 14 day): 1.3 g
- KIDNEY_TOTAL ([…], time 14 day): 2.7 g
- KIDNEY_L ([…], time 28 day): 1.4 g
- KIDNEY_R ([…], time 28 day): 1.4 g
- KIDNEY_TOTAL ([…], time 28 day): 2.9 g
- LIVER ([…], time 7 day): 12.2 g
- LIVER ([…], time 14 day): 14.7 g
- LIVER ([…], time 28 day): 17 g
- A/G ([…], time 7 day): 1.6
- ALP ([…], time 7 day): 926.8 IU/L
- ALT ([…], time 7 day): 35.8 IU/L
- AST ([…], time 7 day): 62.2 IU/L
- BUN ([…], time 7 day): 19.4 mg/dL
- CRE ([…], time 7 day): 0.6 mg/dL
- Ca ([…], time 7 day): 10.8 mg/dL
- Cl ([…], time 7 day): 103 meq/L
- DBIL ([…], time 7 day): 0.016 mg/dL
- GLC ([…], time 7 day): 205.6 mg/dL
- IP ([…], time 7 day): 7.9 mg/dL
- K ([…], time 7 day): 4.5 meq/L
- LDH ([…], time 7 day): 98.6 IU/L
- Na ([…], time 7 day): 137.4 meq/L
- PL ([…], time 7 day): 154.6 mg/dL
- RALB ([…], time 7 day): 3.7 g/dL
- TBIL ([…], time 7 day): 0.4 mg/dL
- TC ([…], time 7 day): 81.2 mg/dL
- TG ([…], time 7 day): 119.6 mg/dL
- TP ([…], time 7 day): 6.1 g/dL
- gamma-GTP ([…], time 7 day): 1.6 IU/L
- A/G ([…], time 14 day): 1.7
- ALP ([…], time 14 day): 702.2 IU/L
- ALT ([…], time 14 day): 32.4 IU/L
- AST ([…], time 14 day): 62.8 IU/L
- BUN ([…], time 14 day): 20 mg/dL
- CRE ([…], time 14 day): 0.6 mg/dL
- Ca ([…], time 14 day): 10.7 mg/dL
- Cl ([…], time 14 day): 103.4 meq/L
- DBIL ([…], time 14 day): 0.008 mg/dL
- GLC ([…], time 14 day): 202.4 mg/dL
- IP ([…], time 14 day): 8.3 mg/dL
- K ([…], time 14 day): 4.4 meq/L
- LDH ([…], time 14 day): 83.4 IU/L
- Na ([…], time 14 day): 139.8 meq/L
- PL ([…], time 14 day): 151.6 mg/dL
- RALB ([…], time 14 day): 3.8 g/dL
- TBIL ([…], time 14 day): 0.3 mg/dL
- TC ([…], time 14 day): 79.6 mg/dL
- TG ([…], time 14 day): 116.8 mg/dL
- TP ([…], time 14 day): 6 g/dL
- gamma-GTP ([…], time 14 day): 1.4 IU/L
- A/G ([…], time 28 day): 1.8
- ALP ([…], time 28 day): 534 IU/L
- ALT ([…], time 28 day): 32.2 IU/L
- AST ([…], time 28 day): 55.5 IU/L
- BUN ([…], time 28 day): 20 mg/dL
- CRE ([…], time 28 day): 0.6 mg/dL
- Ca ([…], time 28 day): 11 mg/dL
- Cl ([…], time 28 day): 105.8 meq/L
- DBIL ([…], time 28 day): 0.01 mg/dL
- GLC ([…], time 28 day): 201.8 mg/dL
- IP ([…], time 28 day): 7.9 mg/dL
- K ([…], time 28 day): 4.5 meq/L
- LDH ([…], time 28 day): 83.2 IU/L
- Na ([…], time 28 day): 139.5 meq/L
- PL ([…], time 28 day): 141.8 mg/dL
- RALB ([…], time 28 day): 4 g/dL
- TBIL ([…], time 28 day): 0.3 mg/dL
- TC ([…], time 28 day): 70.2 mg/dL
- TG ([…], time 28 day): 133.8 mg/dL
- TP ([…], time 28 day): 6.2 g/dL
- gamma-GTP ([…], time 28 day): 0.5 IU/L
